The values below come from paper PMC5765747 (Advanced materials (Deerfield Beach, Fla.), 2017).

The test system of the assay is P. aeruginosa PA01. As to the kind of experiment: Overnight culture growth assay. It counts as cell-based.

Converted amounts (≈) assume the structure as drawn. Where a SMILES comes first, the peptide text is derived from it. Bridges are numbered along the chain shown (N, C = ends). [ ]: non-standard residue; d: D form. The star is where a group is joined. X1 = CC[C@H](C)CCCCC(=O)*; Dab = NCC[C@H](N)C(=O)O

`CC[C@H](C)CCCCC(=O)N[C@@H](CCN)C(=O)N[C@H](C(=O)N[C@@H](CCN)C(=O)N[C@H]1CCNC(=O)[C@H]([C@@H](C)O)NC(=O)[C@H](CCN)NC(=O)[C@H](CCN)NC(=O)[C@H](CC(C)C)NC(=O)[C@@H](CC(C)C)NC(=O)[C@H](CCN)NC1=O)[C@@H](C)O` [colistin] (X1-[Dab]T[Dab][Dab][Dab][dL]L[Dab][Dab]T; lactam 4-C (inferred); N-terminus assumed): the minimum inhibitory concentration (MIC) (P. aeruginosa in LB, 2×10^6 CFU/ml, turbidity at 600 nm) is reported as 0.25 µg/mL (≈ 0.214 µM).

For D[KLAKLAK]2 [dKK], the “inhibitory activity against P. aeruginosa in screening range” value (peptide concentration range 0 – 5 µM, Figure S1) is recorded as “no activity”.

By MIC is commonly meant the smallest concentration in the dilution series that meets the test's criterion for growth inhibition. Read a high MIC as weaker potency.
